Values after ≈ are worked out from the molar mass of the structure shown. Like-named read-outs stand apart in the source and are kept apart here. Some results are limits rather than exact numbers.

Test [1] concerns Pasteurella hemolytica 22C. Description: MIC, broth-dilution microtiter test, Pasteurella hemolytica 22C. The test is classed as cell-based. The text has this:
(§1) The MIC's in Table X were obtained using conventional broth-dilution microtiter tests.

A further test deals with Mycoplasma hyorhinis. Description: MIC, broth-dilution microtiter test, Mycoplasma hyorhinis. The test is classed as cell-based. The note with it: Mycoplasma hyorhinis; broth-dilution microtiter; read-out: MIC.
Excerpt: as §1

The subject of test [2] is Staphylococcus aureus X1.1. Description: MIC, standard agar-dilution assay, Staphylococcus aureus X1.1. The note with it: Staphylococcus aureus, X1.1. Type of test: cell-based.
The test system of test [3] is Haemophilus influenzae Holt. Description: MIC, standard agar-dilution assay, Haemophilus influenzae Holt. Type of test: cell-based. The settings on record: Haemophilus influenzae.
For test [4], the system named is Streptococcus pyogenes C203. Description: MIC, standard agar-dilution assay, Streptococcus pyogenes C203. The settings on record: Streptococcus pyogenes, C203. The test is classed as cell-based.
In test [5] the test system is Staphylococcus aureus X400. The test can be described thus: MIC, standard agar-dilution assay, Staphylococcus aureus X400. Type of test: cell-based. The settings on record: Staphylococcus aureus, X400.
Test [6] relates to Staphylococcus aureus V41. Description: MIC, standard agar-dilution assay, Staphylococcus aureus V41. Type of test: cell-based. The settings on record: Staphylococcus aureus, V41.
The next test deals with Mycoplasma gallisepticum. The test can be described thus: MIC, broth-dilution microtiter test, Mycoplasma gallisepticum. The test is classed as cell-based. The note with it: Mycoplasmoides gallisepticum.
Excerpt: as §1

The subject of test [7] is Streptococcus Group D X66. The test can be described thus: MIC, standard agar-dilution assay, Streptococcus Group D X66. The test is classed as cell-based.
The subject of another test is Staphylococcus aureus. Description: MIC, broth-dilution microtiter test, Staphylococcus aureus. The test is classed as cell-based.
Excerpt: as §1

Test [8] deals with Streptococcus pyogenes C203. The test can be described thus: In vivo protection of mice experimentally infected with S. pyogenes C203. The settings on record: Streptococcus pyogenes, mice, doses given 1 and 4 hours post-infection. On the procedure: The C-20 modified derivatives of this invention have shown in vivo antimicrobial activity against experimentally-induced infections in laboratory animals. When two doses of test compound were administered to mice experimentally infected with S. pyogenes C203, the activity observed was measured as an ED50 value [effective dose in mg/kg to protect 50% of the test animals: see Warren Wick, et al., J. Bacteriol. 81, 233-235 (1961)].

Test [9] deals with Streptococcus pneumoniae Park I. The test can be described thus: microbe, parasite or virus in culture. Type of test: cell-based. The note with it: Streptococcus pneumoniae.
The subject of test [10] is Staphylococcus aureus S13E. The test can be described thus: MIC, standard agar-dilution assay, Staphylococcus aureus S13E. The note with it: Staphylococcus aureus, S13E. The test is classed as cell-based.
Test [11] deals with Pasteurella multocida 17E. Description: MIC, broth-dilution microtiter test, Pasteurella multocida 17E. Type of test: cell-based.
Excerpt: as §1

A further test concerns Mycoplasma synoviae. Description: MIC, broth-dilution microtiter test, Mycoplasma synoviae. Type of test: cell-based. The note with it: Mycoplasmopsis synoviae.
Excerpt: as §1

Test [12] concerns Pasteurella multocida 60A. The test can be described thus: MIC, broth-dilution microtiter test, Pasteurella multocida 60A. The test is classed as cell-based.
Excerpt: as §1

Test [13] deals with Staphylococcus epidermidis EPI1. Description: MIC, standard agar-dilution assay, Staphylococcus epidermidis EPI1. The test is classed as cell-based. The note with it: Staphylococcus epidermidis, EPI1.
Another test deals with Streptococcus Group 9960. The test can be described thus: MIC, standard agar-dilution assay, Streptococcus Group 9960. The test is classed as cell-based. The settings on record: GROUP9960; Streptococcus Group 9960; agar dilution; read-out: MIC. (Agar dilution tests growth on a series of plates holding different concentrations.)
Test [14] has as its system Staphylococcus epidermidis EPI2. Description: MIC, standard agar-dilution assay, Staphylococcus epidermidis EPI2. The test is classed as cell-based. The settings on record: Staphylococcus epidermidis, EPI2.
Another test concerns Streptococcus bovis 80. The test can be described thus: MIC, broth-dilution microtiter test, Streptococcus bovis 80. The test is classed as cell-based. The settings on record: Streptococcus equinus.
Excerpt: as §1

Test [15] relates to Haemophilus influenzae R252. The test can be described thus: MIC, standard agar-dilution assay, Haemophilus influenzae R252. The test is classed as cell-based. The settings on record: Haemophilus influenzae R252; ampicillin-resistant strain; read-out: MIC.
[16] abbreviates: Mycoplasma gallisepticum, broth-dilution microtiter, read-out: MIC.
Where [17] appears, read: C203, sc, subcutaneous, read-out: ED50, Subcutaneous.
Where [18] appears, read: C203, oral, read-out: ED50, Oral.
[19] abbreviates: Pasteurella multocida 17E, bovine isolate, broth-dilution microtiter, read-out: MIC.
Setting [20] is: Pasteurella hemolytica 22C, broth-dilution microtiter, read-out: MIC.
The mark [21] stands for this setting: Pasteurella multocida 60A, avian isolate, broth-dilution microtiter, read-out: MIC.

For `CCOC(=O)c1ccc(OCCC2CC(C)C(=O)C=CC(C)=CC(COC3OC(C)C(O)C(OC)C3OC)C(CC)OC(=O)CC(O)C(C)C2OC2OC(C)C(O)C(N(C)C)C2O)cc1` (centres unmarked) [Compound 38, 20-DH-20-O-[p-(Ethoxycarbonyl)phenyl]desmycosin], the MIC is 50 µg/mL (≈ 54.2 µM) in test [1] (Pasteurella, 22C); 25 µg/mL (≈ 27.1 µM) with Mycoplasma hyorhinis; 0.5 µg/mL (≈ 0.542 µM) in test [2]; 16 µg/mL (≈ 17.4 µM) in test [3]; 0.5 µg/mL (≈ 0.542 µM) in test [4]; 0.5 µg/mL (≈ 0.542 µM) in test [5]. Besides, the MIC in test [6] was 0.5 µg/mL (≈ 0.542 µM); with Mycoplasma gallisepticum (setting [16]) it was 0.39 µg/mL (≈ 0.423 µM); in test [7] (Streptococcus Group D X66, agar dilution, read-out: MIC), 8 µg/mL (≈ 8.68 µM); against Staphylococcus aureus, 0.78 µg/mL (≈ 0.846 µM); in test [9] it was 1 µg/mL (≈ 1.08 µM); in [10], 0.5 µg/mL (≈ 0.542 µM). The MIC in [11] (setting [19]) worked out at 25 µg/mL (≈ 27.1 µM); in the test with Mycoplasma synoviae, 1.56 µg/mL (≈ 1.69 µM); in test [12] (Pasteurella multocida, 60A) it was 50 µg/mL (≈ 54.2 µM); in test [13], 0.5 µg/mL (≈ 0.542 µM); with Streptococcus Group 9960 it was 16 µg/mL (≈ 17.4 µM); in [14], 0.25 µg/mL (≈ 0.271 µM). Further, the MIC with Streptococcus bovis 80 (80) is 0.78 µg/mL (≈ 0.846 µM). Further, the ED50 (usually the midpoint of the dose-response relation) in test [8] (setting [17]) was > 10 mg/kg; in test [8] (setting [18]) it was 35 mg/kg.

In the case of `CCC1OC(=O)CC(O)C(C)C(OC2OC(C)C(OC3CC(C)(O)C(O)C(C)O3)C(N(C)C)C2O)C(CCOC(=O)COc2ccccc2)CC(C)C(=O)C=CC(C)=CC1COC1OC(C)C(O)C(OC)C1OC` (centres unmarked) [Compound 11, 20-DH-20-O-(Phenoxyacetyl)tylosin], the MIC in test [1] (setting [20]) was > 50 µg/mL; in the test on Mycoplasma hyorhinis it was > 50 µg/mL; in [2], 0.5 µg/mL (≈ 0.475 µM); in test [3] it was > 128 µg/mL; in test [4], 0.5 µg/mL (≈ 0.475 µM); in [5], 1 µg/mL (≈ 0.95 µM). Besides, the MIC in test [6] was 0.5 µg/mL (≈ 0.475 µM); with Mycoplasma gallisepticum (setting [16]), 1.56 µg/mL (≈ 1.48 µM); in [7], 8 µg/mL (≈ 7.6 µM); in the test on Staphylococcus aureus (broth-dilution microtiter, read-out: MIC), 1.56 µg/mL (≈ 1.48 µM); in test [9], 0.5 µg/mL (≈ 0.475 µM); in [10] it was 0.5 µg/mL (≈ 0.475 µM). Moreover, the MIC is > 50 µg/mL in [11] (setting [19]); 3.12 µg/mL (≈ 2.97 µM) in the test on Mycoplasma synoviae (Mycoplasma synoviae, broth-dilution microtiter, read-out: MIC); > 50 µg/mL in test [12] (setting [21]); 0.5 µg/mL (≈ 0.475 µM) in test [13]; > 128 µg/mL in [15]; 8 µg/mL (≈ 7.6 µM) with Streptococcus Group 9960. Besides, the MIC in [14] is 0.5 µg/mL (≈ 0.475 µM); in the test on Streptococcus bovis 80 (Streptococcus bovis 80, broth-dilution microtiter, read-out: MIC), 3.12 µg/mL (≈ 2.97 µM).

For the compound `CCC1OC(=O)CC(O)C(C)C(OC2OC(C)C(OC3CC(C)(O)C(O)C(C)O3)C(N(C)C)C2O)C(CCN2C(=O)c3ccccc3C2=O)CC(C)C(=O)C=CC(C)=CC1COC1OC(C)C(O)C(OC)C1OC` (centres unmarked) [Compound 1, 20-DH-DO-20-N-Phthalimidotylosin], the MIC in test [1] (setting [20]) was > 50 µg/mL; in the test on Mycoplasma hyorhinis, > 50 µg/mL; in test [2], 1 µg/mL (≈ 0.955 µM); in test [3], > 128 µg/mL; in [4] it was 2 µg/mL (≈ 1.91 µM); in [5], 2 µg/mL (≈ 1.91 µM). Besides, the MIC in [6] was 1 µg/mL (≈ 0.955 µM); against Mycoplasma gallisepticum it was 3.12 µg/mL (≈ 2.98 µM); in the test on Staphylococcus aureus, 6.25 µg/mL (≈ 5.97 µM); in test [9], 32 µg/mL (≈ 30.6 µM); in test [10] it was 1 µg/mL (≈ 0.955 µM); in [11] (Pasteurella multocida, 17E), > 50 µg/mL. Also, the MIC in the test on Mycoplasma synoviae was 6.25 µg/mL (≈ 5.97 µM); in test [12] (setting [21]), > 50 µg/mL; in test [13] it was 1 µg/mL (≈ 0.955 µM); in test [15] it was > 128 µg/mL; in the test on Streptococcus Group 9960 it was 128 µg/mL (≈ 122 µM); in test [14], 1 µg/mL (≈ 0.955 µM). The same compound gave an MIC in the test on Streptococcus bovis 80 (80) of 50 µg/mL (≈ 47.7 µM). The 50% effective dose (ED50) in test [8] (setting [17]) was > 6.3 mg/kg; in test [8] (setting [18]) it was 71 mg/kg.
